Source: patent US8153424B2, “Method of in vitro differentiation of neural stem cells, motor neurons and dopamine neurons from primate embryonic stem cells” (Wisconsin Alumni Research Foundation, priority 2001, dated 2012)
“Also recorded” adds a separate entry of the source.

Legend:
Type in all cases: cell-based, human
[1] = system: hESC-derived neuroepithelial cells; experiment: Ventral spinal progenitor and motor neuron differentiation in suspension culture, immunocytochemistry, cell counting and FACS
Protocol: For motor neuron induction, hESC-derived neuroepithelial cells at day 10 were first treated with RA (0.1 μM) for caudalization in a neural medium, which consisted of DMEM/F12 (Gibco), N2 supplement, heparin (Sigma, 2 μg/ml) and cAMP (Sigma, 1 μM). One week later (day 17), the posteriorized neuroectodermal cells were isolated, and suspended in the same neural medium in the presence of RA (0.1 μM) and SHH (100-200 ng/ml; R&D, 1845-SH) for one week. After that (day 24), brain-derived neurotrophic factor (BDNF), glial-derived neurotrophic factor (GDNF) and insulin-like growth factor-1 (IGF1) (10 ng/ml, PeproTech Inc.) were added to the culture. Purmorphamine (Calbiochem) at different concentrations (0.5, 1, 2 and 5 μM) was used instead of SHH in some experiments (see Results).
Immunohistochemical staining was performed according to Zhang et al., (Zhang et al. (2001), supra). Primary antibodies used in this study included polyclonal antibodies against Olig2 (1:500, Santa Cruz), Ki67 (1:200, Zymed), Otx2 (1:2000, Chemicon) and ChAT (1:200, Chemicon). Antibodies against MNR2 or HB9 (81.5C10) (1:50), Pax7 (1:2000), Nkx2.2 (1:50) and Hoxb4 (1:50) were purchased from Developmental Studies Hybridoma Bank (DSHB, Iowa City, Iowa). Polyclonal Phox2b and Irx3 antibodies were kindly provided by Dr. Jean-François Brunet (CNRS; École Normale Supérieure, Paris) and Dr. Thomas Jessell (Columbia University; New York, N.Y.), respectively. Images were collected using a Spot digital camera mounted onto a Nikon fluorescent microscope 600 (Fryer Inc.; Huntley, Ill.) or a confocal microscope (Nikon; Tokyo, Japan).
The population of Olig2 or HB9-expressing cells among total differentiated cells (Hoechst labeled) was counted in two ways, as previously described (Li et al. (2005), supra). Six to twelve clusters in each group were counted and data were expressed as Mean ± SEM. Differences between groups were compared by ANOVA test, and the statistical significance was defined as two-sided (p=0.05).
Cells were harvested using Accutase® (Innovative Cell), gently dissociated to single cells and washed with a FACS buffer (PBS, 0.1% NaN3, 2% donkey serum). After being fixed and permeabilized with ice cold 0.1% paraformaldehyde for 10 minutes and with 90% methanol for 30 minutes, cells Were then incubated in primary antibody (Olig2, goat IgG, 1:500) or a goat IgG control at […]. Cells were then washed and incubated with a corresponding secondary antibody, such as Alexa 488 conjugated, donkey, anti-goat IgG, for 2 hours followed by washing steps. Cells were analyzed by a Becton Dickinson FACSCaliber and analyzed with CellQuest Pro (BD Biosciences).

SHH pathway = experiment: RT-PCR of transcription factors in caudalized NE after 1 week of treatment
Protocol: Total RNA was extracted from motor neuron differentiation cultures using RNA STAT-60 (Tel-Test, Inc.; […] Carlsbad, Calif.) according to the manufacturer's protocol and was used as templates for the PCR reaction. PCR reaction was performed in a 15 μl mixture containing cDNA, primers and 1×PCR Master mix (Promega; Madison, Wis.). The following primers were used: Olig-2,[NT] ID NO:21), [NT] ID NO:22), 315 bp; […] ID NO:23), [NT] ID NO:24), 337 bp; […] ID NO:25), [NT] ID NO:26), 473 bp; […] ID NO:27), [NT] ID NO:28), 459 bp; […] ID NO:31), [NT] ID NO:32), 335 bp; GAPDH, [NT] ID NO:1), [NT] ID NO:2), 450 bp; […] ID NO:33), [NT] ID NO:34), 269 bp; […] ID NO:35), [NT] ID NO:36), 399 bp; […] ID NO:37), [NT] ID NO:38), 352 bp; and Gli1, [NT] ID NO:39), [NT] ID NO:40), 185 bp.

[2] = system: voltage-activated sodium channels
[3] = system: voltage-gated sodium channels
[4] = system: hESC-derived EBs (H9 and H9.2 lines); experiment: Formation of neural tube-like structures from embryoid bodies in the presence of FGF2; conditions: total 350 EBs from H9 and H9.2 lines, 3 separate experiments
Protocol: Differentiation cultures of ESCs. ESC cultures were incubated with dispase (Gibco BRL, 0.1 mg/ml) at 37° C. for 30 minutes, which removed ESC colonies intact. The ES cell colonies were pelleted, resuspended in ESC medium without FGF2, and cultured for four days in a 25-cm^2 tissue culture flask (Nunc) with a daily medium change. ESC colonies grew as floating EBs whereas any remaining feeder cells adhered to the flask. The feeder cells were removed by transferring the EBs into a new flask. EBs (˜50/flask) were then plated in a 25-cm^2 tissue culture flask (Nunc) in DMEM/F12, supplemented with insulin (25 μg/ml), transferrin (100 μg/ml), progesterone (20 nM), putrescine (60 μM), sodium selenite (30 nM), and heparin (2 μg/ml) in the presence of FGF2 (20 ng/ml) (Zhang et al., supra, 2000; Zhang et al., supra, 1999).

[5] = system: early rosette cells (Pax6+/Sox1-); experiment: RT-PCR of rostrocaudal genes in early rosette cells; conditions: RA 0.001-1.0 μM or FGF2 20 ng/ml for seven days; dose-dependent
Protocol: RT-PCR amplifications were performed from hESC-derived neuroectodermal cells at different stages and motor neuron differentiation cultures. The following primers were used: […] ID NO:11), [NT] ID NO:12), 318 bp; […] ID NO:13), [NT] ID NO:14), 290 bp; […] ID NO:15), [NT] ID NO:16), 340 bp; […] ID NO:17), [NT] ID NO:18), 429 bp; HoxBl, [NT] ID NO:19), [NT] ID NO:20), 218 bp; GAPDH, [NT] ID NO:1), [NT] ID NO:2), 450 bpi Olig-2, [NT] ID NO:21), [NT] ID NO:22), 315 bp; […] ID NO:23), [NT] ID NO:24), 337 bp; […] ID NO:25), [NT] ID NO:26), 473 bp; […] ID NO:27), [NT] ID NO:28), 459 bp; SHH, [NT] ID NO:29), [NT] ID NO:30), 339 bp; […] ID NO:31), [NT] ID NO:32), 335 bp.

[6] = system: hESC-derived neural precursors; experiment: BrdU incorporation by dissociated ES cell-derived neural precursors; conditions: FGF2 20 ng/ml, EGF 20 ng/ml, LIF 5 ng/ml; each alone
Protocol: Histochemical and immunohistochemical staining. To better visualize the rosette formations, cultures with rosettes were rinsed with PBS and fixed in 4% paraformaldehyde and 0.25% glutaraldehyde for 1 hour. The fixed cells were then processed for embedding in plastic resin as described (Zhang et al., supra, 1999). The cultured cells were then sectioned in 1-μm thickness and stained with toluidine blue. For immunostaining, the coverslip cultures were immunostained with the following primary antibodies detected by appropriate fluorescent secondary antibodies detailed elsewhere (Zhang et al., supra, 2000; Zhang et al., supra, 1999): anti-nestin (polyclonal, gift of Dr. R. McKay of NINDS, 1:1,000); anti-polysialylated neuronal cell adhesion molecule (PSA-NCAM, mouse IgM, gift of Dr. G. Rougon of University of Marseille, France, 1:200); anti-Musashi-1 (rat IgG, gift of Dr. H. Okano, University of Tokyo, Japan, 1:500); anti-GFAP (polyclonal, Dako, 1:1,000); anti-human GFAP (Sternberg monoclonals, 1:10,000); O4 (mouse IgM, hybridoma supernatant, 1:50); anti-tyrosine hydroxylase (TH, Pel Freez, 1:500). The remaining antibodies were from Sigma: anti-βIII-tubulin (mouse IgG, 1:500); anti-neurofilament (NF) 68 (mouse IgG, 1:1,000); anti-NF 200 (polyclonal, 1:5,000); anti-MAP2ab (mouse IgG, 1:250); anti-γ-aminobutyric acid (GABA, polyclonal, 1:10,000); anti-glutamate (mouse IgG, 1:10,000). For bromodeoxyuridine (BrdU) incorporation, 4 coverslip cultures in each group were incubated with 2 μM of BrdU for sixteen hours before the cultures were fixed in 4% paraformaldehyde, denatured with 1N HCl and processed for immunolabeling and cell counting (Zhang et al., supra, 2000; Zhang et al., supra, 1999).

c1ccc2c(Oc3nc(Nc4ccc(N5CCOCC5)cc4)c4ncn(C5CCCCC5)c4n3)cccc2c1 [purmorphamine]
Time of treatment until Olig2+ cells first observed ([1]; after isolating NE cells (day 22 of hESC differentiation), a few days earlier than SHH/RA): ≤ 5 days
Olig2+ cells (highest percentage) ([1]; purmorphamine 1 μM with RA, 3.5 weeks, confirmed by FACS): around 40%
Olig2 expression in progenitors ([1]; purmorphamine 0.5, 1 and 2 uM in the presence of RA 0.1 μM, 3.5 weeks): robustly induced; also recorded: dose-dependent manner
Induction of Olig2+ or HB9+ cells ([1]; purmorphamine alone (without RA) from day 17): not sufficient
Expression of Olig2 and HB9 ([1]; purmorphamine with RA, 4.5 week): over 40%
Olig2+ motor neuron progenitors and HB9+ motor neurons of differentiated population ([1]; purmorphamine with RA, 4.5 weeks of hESC differentiation): at least 80%
HB9+ motor neurons also positive for ChAT ([1]; purmorphamine, attachment on coverslips and another week of differentiation): most
Expression pattern of class II factors (Nkx6.1, Nkx2.2) compared with SHH (SHH pathway; 1 week of purmorphamine treatment): almost identical expression pattern
mRNA for Gli1 (SHH pathway; 1 week of treatment): increased levels

NC1=N[C@H](O)[C@H]2[C@H]3O[C@]4(O)O[C@@H]([C@@H](O)[C@@]2(N1)[C@@H]4O)[C@]3(O)CO [TTX, tetrodotoxin]
Effect on inward currents and action potentials [2]: blocked
Effect on inward currents [3]: completely blocked

FGF2: growth factor FGF2 (Peprotech; R & D Systems)
EBs forming neural tube-like structures [4]: 94%
Expression of Otx2 and Hox genes (Hox B1, B6, C5, C8) [5]: decreased expression of Otx2 and increased expression of Hox genes
BrdU incorporation (stimulation of precursor cell proliferation) [6]: elevated
